Reference: US20090075272A1, “Method to Identify CD40-Sensitive Cells Using Gene Expression” (priority 2007, published 2009)
Entries after “also recorded” stand apart in the source; their conditions may differ.

Legend:
OCI-Ly7 cells [1] = test: Inhibition of CD40-mediated apoptosis by kinase inhibitors (viable cell count); format: cell-based, human; settings: 96 hours CD40 stimulation, U0126 10 μM, PD98059 50 μM, SB203580 10 μM added 30 minutes prior
Protocol: (§1) FIG. 10 is a bar graph showing the effect of ERK inhibition on CD40-mediated apoptosis. Cells were subjected to CD40 stimulation for 96 hours in the presence of the MEK1/2 inhibitors U0126 (10 μM) or PD98059 (50 μM), or the p38 inhibitor SB203580 (10 μM). Cell viability was quantitated by staining nonpermeabilized cells with propidium iodide, and counting the number of unstained (live) cells per unit volume using a Becton-Dickinson FACScan flow cytometer set to count for 30 seconds. The number of viable cells in anti-CD40-treated samples was expressed as a percentage of the number of viable cells incubated in secondary antibody only. Results from three experiments of four replicates each are shown. Error bars represent standard deviations. […] Constitutive ERK phosphorylation is correlated with CD40-mediated cell death.
(§2) Cells were resuspended at 1×10^5 cells/mL in RPMI 1640 medium supplemented as described above. Anti-CD40 antibody G28.5 and secondary crosslinking antibody HB58 were added to a final concentration of 10 μg/mL each, and the cells were incubated at 37° C. At 24 hour intervals aliquots of cells were harvested by centrifugation, washed once in phosphate buffered saline, and resuspended in FACS buffer. Non-permeabilized cells were stained by addition of 1 μg/mL propidium iodide, and the density of viable cells was determined using a FACScan flow cytometer and CellQuest software (Becton Dickinson, Mississauga, ON, Canada) set to count for a fixed 30-second time interval. To determine the fraction of cells that had undergone apoptosis, total intracellular DNA content was measured by propidium iodide staining of ethanol-permeabilized cells as previously described (16). Expression of CD40 on the cell surface was confirmed by staining non-permeabilized cells with a phycoerythrin-linked anti-CD40 antibody (clone 5C3, Becton-Dickinson) as per the manufacturer's directions, followed by flow cytometry.

Su-DHL4 cells [2] = test: as above; format: cell-based, human; settings: 96 hours CD40 stimulation, U0126 10 μM, PD98059 50 μM, SB203580 10 μM added 30 minutes prior
Protocol: as §1, §2

OCI-Ly7 cells [3] = test: Growth inhibition by kinase inhibitors (MTT assay); format: cell-based, human; settings: 96 hours; inhibitor 10^−4 to 10^−8 M
Source text: (§3) Error bars indicate standard deviations.

Su-DHL4 cells [4] = test: Growth inhibition by kinase inhibitors (MTT assay); format: cell-based, human; settings: 96 hours; inhibitor 10^−4 to 10^−8 M
Source text: as §3

[5] = test system: CD40-sensitive and CD40-resistant DLCBL lines (OCI-Ly1, OCI-Ly7, OCI-Ly8, Su-DHL4); settings: 96 hours; inhibitor 10^−4 to 10^−8 M
Protocol: Sensitivity of the cell lines to inhibition of LCK and ERK activity was tested by addition of the src family kinase inhibitor PP1 or the MEK1/2 inhibitor U0126. Cells were incubated for 96 hours in inhibitor concentrations ranging from 10^−4 to 10^−8 M, and viability was assessed by MTT [3-(4,5-dimethylthiazol-2-yl)-2,5-diphenyltetrazolium bromide] assay. Viability is expressed as a percentage of the absorbance at 570 nm as compared to untreated samples. Results of two experiments with quadruplicate samples each were combined. Error bars indicate standard deviations.
The src family kinase inhibitor PP1 and the MEK inhibitor U0126 were purchased from Biomol (Plymouth Meeting, Pa., USA), and from Cell Signaling Technology (Beverly, Mass., USA) respectively. Kinase inhibition assays were performed using cells seeded at a density of 5×10^4 per mL in 96-well plates, to which kinase inhibitors were added to final concentrations of 10^−4 to 10^−8 M. The treated cells were incubated at 37° C. for 96 hours and cell viability was quantitated by MTT assay as previously described (17).

[6] = test system: phosphorylated ERK in Su-DHL4 cells; settings: 10 μM, 48 hours
Protocol: Cells were permeabilized in Cytofix/Cytoperm (Becton-Dickinson) for 20 minutes, and stained with anti-phospho-ERK antibody (Cell Signaling Technology #9101) and FITC-conjugated anti-rabbit secondary antibody (Cedarlane Laboratories, Hornby, ON, CA) following the manufacturers' instructions. The stained cells were analyzed by flow cytometry with a FACScan flow cytometer and CellQuest software.
This hypothesis was tested using pharmacologic inhibitors of MEK. Su-DHL4 cells were incubated in the presence of 10 μM U0126 for 48 hours, permeabilized and stained with an anti-phospho-ERK antibody.

Su-DHL4 cells [7] = test: Cell death after treatment with calcium ionophore; format: cell-based, human

SMILES: COc1cccc(-c2cc(=O)c3ccccc3o2)c1N [PD98059]
- CD40-mediated cell death (viable cells in anti-CD40-treated samples vs secondary antibody only) (OCI-Ly7 cells [1]): prevented CD40-mediated reduction in viability
- CD40-mediated cell death (viable cells in anti-CD40-treated samples vs secondary antibody only) (OCI-Ly7 cells [1]; listed as PD98058): reduced CD40-mediated cell death
- CD40-mediated cell death (viable cells in anti-CD40-treated samples vs secondary antibody only) (Su-DHL4 cells [2]): prevented CD40-mediated reduction in viability
- CD40-mediated cell death (viable cells in anti-CD40-treated samples vs secondary antibody only) (Su-DHL4 cells [2]; listed as PD98058): reduced CD40-mediated cell death

SMILES: Cc1ccc(-c2nn(C(C)(C)C)c3ncnc(N)c23)cc1 [PP1]
- growth (viability by MTT assay) (OCI-Ly7 cells [3]): more effective at reducing proliferation; also recorded: inhibited by PP1 more efficiently than growth of CD40-resistant OCI-Ly1 and OCI-Ly8 cells
- growth (viability by MTT assay) (Su-DHL4 cells [4]): more effective at reducing proliferation; also recorded: inhibited by PP1 more efficiently than growth of CD40-resistant OCI-Ly1 and OCI-Ly8 cells

SMILES: C[S+]([O-])c1ccc(-c2nc(-c3ccncc3)c(-c3ccc(F)cc3)[nH]2)cc1 (stereo not shown) [SB203580]
- CD40-mediated cell death (viable cells in anti-CD40-treated samples vs secondary antibody only) (OCI-Ly7 cells [1]): reduced by CD40 ligation
- CD40-mediated cell death (viable cells in anti-CD40-treated samples vs secondary antibody only) (Su-DHL4 cells [2]): reduced by CD40 ligation

SMILES: N#CC(=C(/N)Sc1ccccc1N)/C(C#N)=C(\N)Sc1ccccc1N [U0126]
- CD40-mediated cell death (viable cells in anti-CD40-treated samples vs secondary antibody only) (OCI-Ly7 cells [1]): prevented CD40-mediated reduction in viability; also recorded: reduced CD40-mediated cell death
- CD40-mediated cell death (viable cells in anti-CD40-treated samples vs secondary antibody only) (Su-DHL4 cells [2]): prevented CD40-mediated reduction in viability; also recorded: reduced CD40-mediated cell death
- differential effects on growth of CD40-sensitive and CD40-resistant DLCBL lines [5]: did not show differential effects
- phosphorylation of ERK [6]: reduced

SMILES: C[C@H](CCC(=O)O)C[C@H](C)C[C@H](C)C(=O)/C=C(\O)[C@H](C)C[C@H](C)C/C=C/[C@@H](C)[C@@H](O)[C@@H](C)[C@@H](O)C[C@@H]1CC[C@@](C)([C@H]2CC[C@@](C)([C@@H](C)O)O2)O1 [ionomycin]
- cell death (Su-DHL4 cells [7]): induced cell death
